# Test results reported in patent US12427210B2, “Compounds comprising a fibroblast activation protein ligand and use thereof” (priority 2019, dated 2025).
# Legend:
# Matrix metalloprotease1 = biological target: T1, Matrix metalloprotease1 (Homo sapiens, UniProt P03956); conditions: 1 μM
# T1 sequence (P03956 100-469): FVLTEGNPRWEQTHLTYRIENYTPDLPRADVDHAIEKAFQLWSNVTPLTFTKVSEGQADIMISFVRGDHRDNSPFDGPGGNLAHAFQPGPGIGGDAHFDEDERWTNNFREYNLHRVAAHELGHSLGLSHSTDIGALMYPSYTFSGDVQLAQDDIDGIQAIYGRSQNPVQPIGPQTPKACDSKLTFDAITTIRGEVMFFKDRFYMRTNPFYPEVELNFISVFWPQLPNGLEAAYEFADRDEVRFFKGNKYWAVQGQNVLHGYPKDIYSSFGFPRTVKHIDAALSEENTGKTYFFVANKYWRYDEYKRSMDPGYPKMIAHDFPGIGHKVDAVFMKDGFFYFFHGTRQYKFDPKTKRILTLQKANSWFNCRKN
# Matrix metalloprotease 2 = biological target: T2, Matrix metalloprotease 2 (Homo sapiens, UniProt P08253); conditions: 100 nM
# T2 sequence (P08253 110-660): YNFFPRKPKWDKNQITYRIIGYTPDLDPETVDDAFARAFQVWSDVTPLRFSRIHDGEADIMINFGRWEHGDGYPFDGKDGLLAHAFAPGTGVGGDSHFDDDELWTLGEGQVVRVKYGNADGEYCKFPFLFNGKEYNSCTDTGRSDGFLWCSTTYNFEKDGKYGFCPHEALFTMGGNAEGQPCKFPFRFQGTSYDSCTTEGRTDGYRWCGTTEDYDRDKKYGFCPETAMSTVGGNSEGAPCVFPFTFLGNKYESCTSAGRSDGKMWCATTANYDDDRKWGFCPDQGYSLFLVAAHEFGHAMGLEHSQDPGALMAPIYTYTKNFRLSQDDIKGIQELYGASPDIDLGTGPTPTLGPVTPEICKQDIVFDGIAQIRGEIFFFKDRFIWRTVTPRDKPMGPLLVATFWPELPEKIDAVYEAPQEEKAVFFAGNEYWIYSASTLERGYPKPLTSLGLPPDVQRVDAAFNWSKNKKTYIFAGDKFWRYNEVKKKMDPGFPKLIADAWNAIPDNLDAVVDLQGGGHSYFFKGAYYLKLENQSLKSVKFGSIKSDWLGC
# [1] = biological target: T3, Matrix metalloprotease 9 (mutant Q279R) (Homo sapiens, UniProt P14780, Q279R); conditions: 100 nM
# T3 sequence (P14780 94-707 Q279R): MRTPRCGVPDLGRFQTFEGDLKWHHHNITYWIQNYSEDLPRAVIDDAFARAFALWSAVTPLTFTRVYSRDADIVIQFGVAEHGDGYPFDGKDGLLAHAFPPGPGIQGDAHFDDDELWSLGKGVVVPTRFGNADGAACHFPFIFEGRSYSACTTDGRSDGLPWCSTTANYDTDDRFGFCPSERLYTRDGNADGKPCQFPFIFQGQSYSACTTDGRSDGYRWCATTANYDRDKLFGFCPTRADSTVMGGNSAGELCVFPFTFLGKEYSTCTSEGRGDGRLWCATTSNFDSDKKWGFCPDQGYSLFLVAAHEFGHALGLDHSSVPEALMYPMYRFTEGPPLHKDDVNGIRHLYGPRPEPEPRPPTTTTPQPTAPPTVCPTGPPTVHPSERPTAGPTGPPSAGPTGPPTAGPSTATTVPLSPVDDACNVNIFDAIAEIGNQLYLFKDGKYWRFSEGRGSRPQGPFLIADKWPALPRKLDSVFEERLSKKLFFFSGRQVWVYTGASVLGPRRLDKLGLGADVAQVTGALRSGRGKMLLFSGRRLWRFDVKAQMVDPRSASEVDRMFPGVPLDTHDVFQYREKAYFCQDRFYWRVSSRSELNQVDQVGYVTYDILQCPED
structure (smiles),measurement,setting,value
COc1ccc(S(=O)(=O)N(CC(=O)NO)CC(C)C)cc1 [NNGH],"Percentage inhibition (%), Reference",Matrix metalloprotease1,87%
same,"Percentage inhibition (%), Reference",Matrix metalloprotease 2,95%
same,"Percentage inhibition (%), Reference",[1],92%
